From US10392402B2, “Heterocyclic compounds as kinase inhibitors” (TRANSLATIONAL DRUG DEVELOPMENT LLC, priority 2015, dated 2019)

Tests used:
[1] = molecular target: ROCK1 (Homo sapiens (Human), UniProt Q13464); test: ROCK1 kinase inhibition assay (LABCHIP peptide phosphorylation); assay type: biochemical; settings: 5 μM ATP, 3 nM ROCK1, 3 hours at 25° C.
Method: (§1) The peptide is >98% purity by Capillary Electrophoresis. The peptide is phosphorylated by the protein kinase ROCK1 or ROCK2. The ROCK1 or ROCK2 enzyme, substrate, and cofactors (ATP and Mg^2+) are combined in a well of a microtiter plate and incubated for 3 hours at 25° C. At the end of the incubation, the reaction is quenched by the addition of an EDTA-containing buffer. The substrate and product are separated and quantified electrophoretically using the microfluidic-based LABCHIP® 3000 Drug Discovery System from Caliper Life Sciences (Hopkinton, Mass.).
(§2) Substrate and product peptides present in each sample are separated electrophoretically using the LABCHIP® 3000 capillary electrophoresis instrument. […] Change in the relative fluorescence intensity of the substrate and product peaks is the parameter measured reflecting enzyme activity. Capillary electrophoregramms (RDA acquisition files) are analyzed using HTS Well Analyzer software (Caliper Life Sciences, Hopkinton, Mass.). The kinase activity in each sample is determined as the product to sum ratio (PSR): P/(S+P), where P is the peak height of the product peptide and S is the peak height of the substrate peptide. For each compound, enzyme activity is measured at various concentrations (12 concentrations of compound spaced by 3× dilution intervals). Negative control samples (0%-inhibition in the absence of inhibitor) and positive control samples (100%-inhibition in the presence of 20 mM EDTA) are assembled in replicates of four and are used to calculate %-inhibition values for each compound at each concentration. Percent inhibition (Pinh) is determined using the following equation: Pinh=(PSR0%−PSRinh)/(PSR0%−PSR100%)*100 where PSRinh is the product sum ratio in the presence of inhibitor, PSR/% is the average product sum ratio in the absence of inhibitor, and PSR100% is the average product sum ratio in 100%-inhibition control samples. The IC50 values of inhibitors are determined by fitting the inhibition curves (Pinh versus inhibitor concentration) by 4 parameter sigmoidal dose-response model using XLfit 4 software (IBDS).

[2] = test system: MV411 cell line; test: Cell viability assay ([…]-GLO), MV411; assay type: cell-based; settings: for IC50: Homo sapiens, MV4-11, MV411 (ITD-FLT3+), 72 hours treatment; for FLT3-ITD+ Selectivity (K562/MV411): ratio of K562 to MV411 IC50
Method: (§3) Cell viability in the presence of varying concentrations of the above listed compounds at different time points was used to assess cytotoxicity and the effect of the compounds on cell proliferation.
(§4) Cell viability was measured by the […]-GlO® cell viability assay from Promega (Madison, Wis.). The […]-GlO® Luminescent Cell Viability Assay is a homogeneous method to determine the number of viable cells in culture based on quantitation of the ATP present, which signals the presence of metabolically active cells. Following treatment, […]-GlO® is added to treatment wells and incubated at 37° C. luminescence values were measured at using a Molecular Devices Spectramax microplate reader.
(§5) Cells were grown to 70% confluency, trypsinized, counted, and seeded in 96 well flat-bottom plates at a final concentration of 2.5×10^3-5×10^3 cells/well (Day 0). Cells were allowed to incubate in growth media for 24 hours. Treatment with the test agents or standard agents began on Day 1 and continued for 72 hours. At the 72-hour time point, treatment containing media was removed.
(§6) For single agent and combination studies, data from each experiment was collected and expressed as % Cell Growth using the following calculation: % Cell Growth=(ftest/fvehicle)×100 Where ftest is the luminescence of the tested sample, and fvehicle is the luminescence of the vehicle in which the drug is dissolved. Dose response graphs and IC50 values were generated using Prism 6 software (GraphPad) using the following equation: Y=(Top−Bottom/(1+10^((logIC50−X)−HillSlope)) Where X is the logarithm of the concentration and Y is the response. Y starts at the Bottom and goes to the Top with a sigmoid shape.
The experiments also evaluated the selectivity of the compounds for inhibiting growth of cancer cells carrying a mutation in the Flt3 gene. The MV411 cell line expresses the mutant allele of Flt3 with internal tandem duplications (ITD) of the gene. See Quentmeier et al., “FLT3 Mutations in Acute Myeloid Leukemia Cell Lines,” Leukemia 17(1), 2003, 120-124. […] See Grafone et al., “Monitoring of FLT3 Phosphorylation Status and Its Response to Drugs By Flow Cytometry in AML Blast Cells,” Hematol Oncol. 26(3), 2008, 159-166. Patients with ITD-FLT3^+ acute myeloid leukemia (AML) experience an extremely poor prognosis.

[3] = molecular target: ROCK2 (Homo sapiens (Human), UniProt O75116); test: ROCK2 kinase inhibition assay (LABCHIP peptide phosphorylation); assay type: biochemical; settings: 7 μM ATP, 2.5 nM ROCK2, 3 hours at 25° C.
Method: as §1, §2

[4] = test system: K562 cell line; test: Cell viability assay ([…]-GLO), K562; assay type: cell-based; settings: Homo sapiens; K562 (does not express ITD-FLT3), 72 hours treatment
Method: as §3, §4
as §5, with “removed. Viable cell numbers were quantified by the […]-GLO® cell viability assay as described above. Results from these studies were used to calculate an IC50 value (concentration of drug that inhibits cell growth by 50 percent of control) for each compound.” for “removed.”
as §6, with “shape. […]” for “shape.”

Sequence of ROCK1 (Q13464 whole entry): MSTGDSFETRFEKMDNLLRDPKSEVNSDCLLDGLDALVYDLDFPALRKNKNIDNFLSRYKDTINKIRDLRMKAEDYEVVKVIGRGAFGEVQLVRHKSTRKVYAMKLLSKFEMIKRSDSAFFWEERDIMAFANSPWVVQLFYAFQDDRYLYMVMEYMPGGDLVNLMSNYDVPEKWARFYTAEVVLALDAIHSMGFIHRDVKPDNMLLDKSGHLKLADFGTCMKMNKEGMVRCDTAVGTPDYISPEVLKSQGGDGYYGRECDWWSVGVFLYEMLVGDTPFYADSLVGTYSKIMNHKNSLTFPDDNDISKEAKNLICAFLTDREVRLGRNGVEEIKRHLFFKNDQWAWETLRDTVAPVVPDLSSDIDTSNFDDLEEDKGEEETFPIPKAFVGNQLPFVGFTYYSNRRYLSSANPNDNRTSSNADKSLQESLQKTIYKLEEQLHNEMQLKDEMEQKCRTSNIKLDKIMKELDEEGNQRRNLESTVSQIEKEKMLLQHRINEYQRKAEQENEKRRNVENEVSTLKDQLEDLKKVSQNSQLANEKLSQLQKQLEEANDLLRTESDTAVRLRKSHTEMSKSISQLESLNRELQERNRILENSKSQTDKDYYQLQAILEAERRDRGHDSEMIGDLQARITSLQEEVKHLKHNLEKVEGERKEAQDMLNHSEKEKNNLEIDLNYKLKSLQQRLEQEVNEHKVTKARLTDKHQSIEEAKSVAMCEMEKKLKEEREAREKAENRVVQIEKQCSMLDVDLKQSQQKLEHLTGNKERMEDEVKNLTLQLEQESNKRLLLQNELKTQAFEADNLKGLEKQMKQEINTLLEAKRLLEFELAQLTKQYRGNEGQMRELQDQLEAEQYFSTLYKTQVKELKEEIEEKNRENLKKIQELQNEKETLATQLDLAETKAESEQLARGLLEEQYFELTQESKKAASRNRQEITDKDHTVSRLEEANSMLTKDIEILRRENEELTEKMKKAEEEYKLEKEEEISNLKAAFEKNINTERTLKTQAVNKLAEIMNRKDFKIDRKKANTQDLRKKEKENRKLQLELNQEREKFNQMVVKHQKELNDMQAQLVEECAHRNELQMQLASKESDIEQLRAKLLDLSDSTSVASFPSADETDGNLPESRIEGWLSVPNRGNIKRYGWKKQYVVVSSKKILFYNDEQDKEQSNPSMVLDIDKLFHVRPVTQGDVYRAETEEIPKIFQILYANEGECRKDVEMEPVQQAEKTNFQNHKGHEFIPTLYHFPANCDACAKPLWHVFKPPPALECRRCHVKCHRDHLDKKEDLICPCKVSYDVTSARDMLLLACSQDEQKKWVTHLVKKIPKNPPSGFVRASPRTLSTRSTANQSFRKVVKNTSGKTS
Sequence of ROCK2 (O75116 whole entry): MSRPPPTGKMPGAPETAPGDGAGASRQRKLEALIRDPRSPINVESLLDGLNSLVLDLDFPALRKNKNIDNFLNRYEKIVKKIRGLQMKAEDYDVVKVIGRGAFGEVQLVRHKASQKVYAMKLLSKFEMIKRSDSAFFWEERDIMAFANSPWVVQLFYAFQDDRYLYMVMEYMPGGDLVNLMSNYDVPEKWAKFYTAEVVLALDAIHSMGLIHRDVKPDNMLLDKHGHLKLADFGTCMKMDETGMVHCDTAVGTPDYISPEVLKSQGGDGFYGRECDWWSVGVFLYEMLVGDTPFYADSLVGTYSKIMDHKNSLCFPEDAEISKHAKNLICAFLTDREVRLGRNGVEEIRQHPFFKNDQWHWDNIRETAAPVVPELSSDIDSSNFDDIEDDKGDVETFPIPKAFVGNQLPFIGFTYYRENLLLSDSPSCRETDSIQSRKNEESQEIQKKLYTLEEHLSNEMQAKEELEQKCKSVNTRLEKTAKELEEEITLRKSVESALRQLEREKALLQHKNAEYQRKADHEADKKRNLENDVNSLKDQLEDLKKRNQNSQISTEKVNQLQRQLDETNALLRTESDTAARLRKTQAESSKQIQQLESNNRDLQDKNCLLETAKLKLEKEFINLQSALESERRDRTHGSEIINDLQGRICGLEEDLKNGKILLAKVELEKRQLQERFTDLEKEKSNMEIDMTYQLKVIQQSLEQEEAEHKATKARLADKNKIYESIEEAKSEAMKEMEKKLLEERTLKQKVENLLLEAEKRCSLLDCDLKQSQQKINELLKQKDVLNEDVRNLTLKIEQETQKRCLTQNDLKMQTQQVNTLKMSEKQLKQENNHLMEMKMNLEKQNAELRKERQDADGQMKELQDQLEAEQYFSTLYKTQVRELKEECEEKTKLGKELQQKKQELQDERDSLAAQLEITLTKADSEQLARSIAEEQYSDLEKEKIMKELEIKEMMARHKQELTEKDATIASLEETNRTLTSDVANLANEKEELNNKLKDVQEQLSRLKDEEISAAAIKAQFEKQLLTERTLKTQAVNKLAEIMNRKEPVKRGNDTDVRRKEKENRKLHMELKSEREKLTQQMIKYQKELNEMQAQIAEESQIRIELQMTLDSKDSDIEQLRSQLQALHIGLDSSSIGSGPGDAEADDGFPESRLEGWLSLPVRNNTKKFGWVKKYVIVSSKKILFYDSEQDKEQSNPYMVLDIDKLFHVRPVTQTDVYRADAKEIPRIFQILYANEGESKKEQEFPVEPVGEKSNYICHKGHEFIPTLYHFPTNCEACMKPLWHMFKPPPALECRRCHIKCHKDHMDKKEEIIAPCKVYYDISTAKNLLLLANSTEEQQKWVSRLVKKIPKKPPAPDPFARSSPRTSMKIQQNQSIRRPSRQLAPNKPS

O=C(N[C@H](CO)c1cccc(F)c1)c1cc(-c2ccncc2)[nH]n1 [Compound 1]
IC50 [1]: 0.207 µM | IC50 [2]: 67.6 µM | FLT3-ITD+ Selectivity (K562/MV411) [2]: >1 | IC50 [3]: 0.098 µM | IC50 [4]: > 100 µM

O=C(NCc1cccc(O)c1)Nc1cc(-c2ccncc2)[nH]n1 [Compound 3]
IC50 [2]: 43.7 µM | FLT3-ITD+ Selectivity (K562/MV411) [2]: >2 | IC50 [4]: > 100 µM

COc1ccc(OC)c(CNC(=O)Nc2cc(-c3ccncc3)n[nH]2)c1 [Compound 54]
IC50 [2]: 12.6 µM | FLT3-ITD+ Selectivity (K562/MV411) [2]: >8 | IC50 [4]: > 100 µM

COc1cccc(CNC(=O)c2cc3ccc(-c4cn[nH]c4)nc3s2)c1 [Compound 40]
IC50 [1]: 0.0651 µM | IC50 [2]: 7.1 µM | FLT3-ITD+ Selectivity (K562/MV411) [2]: >14 | IC50 [3]: 0.0174 µM | IC50 [4]: > 100 µM

COc1cccc(CN(CCN(C)C)C(=O)Nc2cc(-c3ccncc3)[nH]n2)c1 [Compound 11]
IC50 [1]: 0.0636 µM | IC50 [2]: 14.5 µM | FLT3-ITD+ Selectivity (K562/MV411) [2]: >7 | IC50 [3]: 0.0221 µM | IC50 [4]: > 100 µM

COCCOc1cccc(CNC(=O)Nc2cc(-c3ccncc3)[nH]n2)c1 [Compound 51]
IC50 [2]: 17 µM | FLT3-ITD+ Selectivity (K562/MV411) [2]: >6 | IC50 [4]: > 100 µM

COc1cccc([C@@H](C)NC(=O)Nc2cc(-c3ccncc3)n[nH]2)c1 [Compound 52]
IC50 [1]: 0.034 µM | IC50 [2]: 11.2 µM | FLT3-ITD+ Selectivity (K562/MV411) [2]: >9 | IC50 [3]: 0.0087 µM | IC50 [4]: > 100 µM

COc1ccc(F)c(CNC(=O)Nc2cc(-c3ccncc3)[nH]n2)c1 [Compound 50]
IC50 [1]: 1.01 µM | IC50 [2]: 7.8 µM | FLT3-ITD+ Selectivity (K562/MV411) [2]: >13 | IC50 [3]: 0.239 µM | IC50 [4]: > 100 µM

COc1cccc(CN(C)C(=O)Nc2cc(-c3ccncc3)[nH]n2)c1 [Compound 7]
IC50 [1]: 0.102 µM | IC50 [2]: 7.6 µM | FLT3-ITD+ Selectivity (K562/MV411) [2]: 12 | IC50 [3]: 0.0229 µM | IC50 [4]: 89.1 µM

COc1cc(CNC(=O)Nc2cc(-c3ccncc3)[nH]n2)ccc1F [Compound 47]
IC50 [2]: 7.8 µM | FLT3-ITD+ Selectivity (K562/MV411) [2]: 2 | IC50 [4]: 17.8 µM

COc1cccc(CN(CCO)C(=O)Nc2cc(-c3ccncc3)[nH]n2)c1 [Compound 9]
IC50 [1]: 0.237 µM | IC50 [2]: 39.8 µM | FLT3-ITD+ Selectivity (K562/MV411) [2]: 2 | IC50 [3]: 0.0391 µM | IC50 [4]: 97.2 µM

Cc1c[nH]c2nccc(Oc3c(F)cc(Nc4cc(Cl)nc(N)n4)cc3F)c12 [Compound A, reference compound]
IC50 [2]: 0.7 µM | IC50 [4]: 0.8 µM

COc1cc(F)cc(CNC(=O)Nc2cc(-c3ccncc3)[nH]n2)c1 [Compound 49]
IC50 [2]: 7.8 µM | FLT3-ITD+ Selectivity (K562/MV411) [2]: 2 | IC50 [4]: 17.8 µM

COc1cccc(CNC(=O)Nc2cnn(-c3ccncc3)c2)c1 [Compound 25]
IC50 [1]: 0.13 µM | IC50 [2]: 34 µM | FLT3-ITD+ Selectivity (K562/MV411) [2]: 3 | IC50 [3]: 0.0287 µM | IC50 [4]: 85 µM

COc1cccc(CNC(=O)Nc2cc(-c3ccncc3)[nH]n2)c1F [Compound 48]
IC50 [1]: 6.4 µM | IC50 [3]: 1.87 µM

COc1cccc([C@@H](C)NC(=O)N(C)c2cc(-c3ccncc3)n[nH]2)c1 [Compound 53]
IC50 [2]: 93.3 µM | FLT3-ITD+ Selectivity (K562/MV411) [2]: 1 | IC50 [4]: 64.6 µM

COc1cccc(CNC(=O)Nc2cc(-c3ccncc3)[nH]n2)c1 [Compound 5]
IC50 [1]: 0.073 µM | IC50 [2]: 10.2 µM | FLT3-ITD+ Selectivity (K562/MV411) [2]: 4 | IC50 [3]: 0.0161 µM | IC50 [4]: 43.6 µM
